According to PubChem BioAssay AID192 (DTP/NCI, 2004):
Where “and” joins values, the source holds several entries; their conditions need not be identical. Equal entries are not always repeated. Toxic doses and inconclusive results are not listed. Peptide text beside a SMILES is read from it. * marks the point of attachment. Cbz = O=C(OCc1ccccc1)*

System: BDF1 mice, B16 melanoma ip, median survival T/C
Assay: NCI In Vivo Anticancer Drug Screen. Data for tumor model B16 Melanoma (intraperitoneal) in B6D2F1 (BDF1) mice
Conditions: endpoint: median survival time, higher = longer survival
Outline: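 Compounds were tested in mice carrying transplantable tumors. Survival or tumor size was recorded, and each value is the treated-group measurement (T) divided by that of the vehicle-treated control group (C).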

[1] = dose: 25.0 mg/kg/injection, schedule: Q04DX003 (ip), vehicle: Klucel (hydroxypropylcellulose) (HPC)
[2] = dose: 50.0 mg/kg/injection, schedule: Q04DX003 (ip), vehicle: Klucel (hydroxypropylcellulose) (HPC)
[3] = dose: 100.0 mg/kg/injection, schedule: Q04DX003 (ip), vehicle: Klucel (hydroxypropylcellulose) (HPC)
[4] = dose: 200.0 mg/kg/injection, schedule: Q04DX003 (ip), vehicle: Klucel (hydroxypropylcellulose) (HPC)
[5] = dose: 25.0 mg/kg/injection, schedule: Q01DX009 (ip), vehicle: saline
[6] = dose: 50.0 mg/kg/injection, schedule: Q01DX009 (ip), vehicle: saline
[7] = dose: 100.0 mg/kg/injection, schedule: Q01DX009 (ip), vehicle: saline
[8] = dose: 200.0 mg/kg/injection, schedule: Q01DX009 (ip), vehicle: saline
[9] = dose: 100.0 mg/kg/injection, schedule: Q01DX009 (ip), vehicle: saline with Tween-80
[10] = dose: 200.0 mg/kg/injection, schedule: Q01DX009 (ip), vehicle: saline with Tween-80
[11] = dose: 100.0 mg/kg/injection, schedule: Q01DX009 (ip), vehicle: Klucel (hydroxypropylcellulose) (HPC)
[12] = dose: 200.0 mg/kg/injection, schedule: Q01DX009 (ip), vehicle: Klucel (hydroxypropylcellulose) (HPC)
[13] = dose: 100.0 mg/kg/injection, schedule: Q04DX003 (ip), vehicle: saline with Tween-80
[14] = dose: 200.0 mg/kg/injection, schedule: Q04DX003 (ip), vehicle: saline with Tween-80
[15] = dose: 400.0 mg/kg/injection, schedule: Q04DX003 (ip), vehicle: saline with Tween-80
[16] = dose: 12.5 mg/kg/injection, schedule: Q01DX009 (ip), vehicle: saline
[17] = dose: 25.0 mg/kg/injection, schedule: Q01DX009 (ip), vehicle: saline with Tween-80
[18] = dose: 50.0 mg/kg/injection, schedule: Q01DX009 (ip), vehicle: saline with Tween-80
[19] = dose: 400.0 mg/kg/injection, schedule: Q01DX009 (ip), vehicle: saline with Tween-80
[20] = dose: 50.0 mg/kg/injection, schedule: Q01DX009 (ip), vehicle: Klucel (hydroxypropylcellulose) (HPC)

COC(=O)c1ccc(=O)c2nc3/c(=C/O)c(O)cc(=O)c3[nH]c12
T/C (dose: 0.01 mg/kg/injection, schedule: Q01DX009 (ip), vehicle: saline with Tween-80): 102 % of control | T/C (dose: 0.01 mg/kg/injection, schedule: Q04DX003 (ip), vehicle: saline with Tween-80): 91 % of control | T/C (dose: 0.02 mg/kg/injection, schedule: Q01DX009 (ip), vehicle: saline with Tween-80): 90 % of control | T/C (dose: 0.02 mg/kg/injection, schedule: Q04DX003 (ip), vehicle: saline with Tween-80): 102 % of control | T/C (dose: 0.04 mg/kg/injection, schedule: Q01DX009 (ip), vehicle: saline with Tween-80): 95 % of control | T/C (dose: 0.04 mg/kg/injection, schedule: Q04DX003 (ip), vehicle: saline with Tween-80): 106 % of control

CC1CC(C)(O)C2C3(C)CCCC2(COC3=O)C12CCC1(CCOC1=O)O2 (centres undefined)
T/C (dose: 2.5 mg/kg/injection, schedule: Q01DX009 (ip), vehicle: saline with Tween-80): 102 % of control | T/C (dose: 5.0 mg/kg/injection, schedule: Q01DX009 (ip), vehicle: saline with Tween-80): 94 % of control | T/C (dose: 10.0 mg/kg/injection, schedule: Q01DX009 (ip), vehicle: saline with Tween-80): 98 % of control

CCN(CC)N=Nc1ccccc1-c1nc(N)c2ccccc2n1
T/C [1]: 94 % of control | T/C [2]: 109 % of control | T/C [3]: 96 % of control | T/C [4]: 103 % of control

Nc1nc(N)c2c(Cl)c(CNc3ccc(Cl)c(Cl)c3)ccc2n1
T/C (dose: 0.5 mg/kg/injection, schedule: Q01DX009 (ip), vehicle: saline with Tween-80): 98 % of control | T/C (dose: 1.0 mg/kg/injection, schedule: Q01DX009 (ip), vehicle: saline with Tween-80): 96 % of control | T/C (dose: 2.0 mg/kg/injection, schedule: Q01DX009 (ip), vehicle: saline with Tween-80): 113 % of control | T/C (dose: 4.0 mg/kg/injection, schedule: Q01DX009 (ip), vehicle: saline with Tween-80): 107 % of control

C1CCNCC1
T/C [5]: 100 % of control | T/C [6]: 102 % of control | T/C [7]: 107 % of control | T/C [8]: 102 % of control

CCOC(=O)c1ccc(OC(=O)Nc2ccc(Cl)cc2)cc1
T/C [9]: 96 % of control | T/C [10]: 92 % of control

CO/C(=C\c1ccc(OC)cc1)C(=O)O
T/C [2]: 94 % of control | T/C [3]: 100 % of control | T/C [4]: 111 % of control

Cc1ccc(NC(=O)c2ccccc2C(=O)O)cc1Cl
T/C [11]: 94 % of control | T/C [12]: 94 % of control

O=C(NO)N/N=C/c1ccccc1
T/C [13]: 106 % of control | T/C [14]: 104 % of control | T/C [15]: 90 % of control

FC(F)(F)c1cc(CN(CCCl)CCCl)cc(C(F)(F)F)c1
T/C [16]: 97 % of control | T/C [5]: 92 % of control

CC1(C#N)CCc2c(ccc3ccccc23)C1=O (centres undefined)
T/C (dose: 50.0 mg/kg/injection, schedule: Q04DX003 (ip), vehicle: other): 122 % of control | T/C (dose: 100.0 mg/kg/injection, schedule: Q04DX003 (ip), vehicle: other): 107 % of control | T/C [13]: 95 % of control | T/C [15]: 95 % of control

CCC1CN2CCc3cc(OC)c(OC)cc3C2CC1CC1c2cc(OC)c(OC)cc2CCN1C(=O)C(Cc1c[nH]c2ccccc12)NC(=O)OC(C)(C)C (centres undefined)
T/C (dose: 8.0 mg/kg/injection, schedule: Q04DX003 (ip), vehicle: saline with Tween-80): 102 % of control | T/C (dose: 16.0 mg/kg/injection, schedule: Q04DX003 (ip), vehicle: saline with Tween-80): 102 % of control | T/C (dose: 32.0 mg/kg/injection, schedule: Q04DX003 (ip), vehicle: saline with Tween-80): 100 % of control | T/C (dose: 64.0 mg/kg/injection, schedule: Q04DX003 (ip), vehicle: saline with Tween-80): 110 % of control | T/C (dose: 128.0 mg/kg/injection, schedule: Q04DX003 (ip), vehicle: saline with Tween-80): 89 % of control

CC(C)CC(NC(=O)C(Cc1ccccc1)NC(=O)OCc1ccccc1)C(=O)O (stereo not drawn) (Cbz-Phe-Leu-OH; configuration not given here)
T/C [17]: 92 % of control | T/C [18]: 93 % of control | T/C [9]: 90 % of control | T/C [10]: 87 % of control

O=S(=O)(O)c1ccc(Nc2ccccc2)cc1
T/C [11]: 107 % of control and 97 % of control | T/C [12]: 114 % of control and 88 % of control | T/C (dose: 400.0 mg/kg/injection, schedule: Q01DX009 (ip), vehicle: Klucel (hydroxypropylcellulose) (HPC)): 107 % of control and 100 % of control

OC(CCl)Cc1ccccc1 (centres undefined)
T/C [16]: 102 % of control | T/C [5]: 95 % of control | T/C [6]: 100 % of control

CCOC(=O)c1c[nH]c2oc(/C=N/N3CC(CN4CCOCC4)OC3=O)cc2c1=O (centres undefined)
T/C [16]: 95 % of control | T/C [5]: 98 % of control | T/C [6]: 97 % of control | T/C [7]: 105 % of control

Clc1ccc(Sc2ccc(Cl)cc2)cc1
T/C [9]: 101 % of control | T/C [10]: 95 % of control | T/C [19]: 93 % of control

O=C(Nc1ccccc1)c1ccc(C(F)(F)F)cc1O
T/C (dose: 25.0 mg/kg/injection, schedule: Q01DX009 (ip), vehicle: Klucel (hydroxypropylcellulose) (HPC)): 95 % of control | T/C [20]: 95 % of control

CC(O)c1cc(Cl)ccc1Cl (centres undefined)
T/C [9]: 93 % of control | T/C [13]: 107 % of control | T/C [10]: 115 % of control | T/C [14]: 107 % of control | T/C [19]: 103 % of control

O=[N+]([O-])c1ccc(N=Nc2c(Cl)cc(O)cc2Cl)cc1
T/C [17]: 101 % of control | T/C [18]: 90 % of control | T/C [9]: 88 % of control | T/C [10]: 90 % of control

CCC(C)C1NC(=O)C(NC(=O)c2c3nc4c(C(=O)NC5C(=O)NC(C(C)CC)C(=O)N6CCCC6C(=O)N(C)CC(=O)N(C)C(C(C)C)C(=O)OC5C)cc([N+](=O)[O-])c(C)c4oc-3c(C)c(=O)c2N)C(C)OC(=O)C(C(C)C)N(C)C(=O)CN(C)C(=O)C2CCCN2C1=O (centres undefined)
T/C (dose: 25.0 micrograms/kg/injection, schedule: Q01DX009 (ip), vehicle: water): 110 % of control | T/C (dose: 50.0 micrograms/kg/injection, schedule: Q01DX009 (ip), vehicle: water): 119 % of control | T/C (dose: 100.0 micrograms/kg/injection, schedule: Q01DX009 (ip), vehicle: water): 124 % of control | T/C (dose: 400.0 micrograms/kg/injection, schedule: Q01DX009 (ip), vehicle: water): 160 % of control

CC1(C)COC(c2ccccc2)=N1
T/C [7]: 123 % of control | T/C [8]: 115 % of control

CCOC(=O)/C=C/C(=O)NCC(N)C(=O)O (centres undefined)
T/C (dose: 6.25 mg/kg/injection, schedule: Q01DX009 (ip), vehicle: distilled water + Tween-80): 96 % of control | T/C (dose: 12.5 mg/kg/injection, schedule: Q01DX009 (ip), vehicle: distilled water + Tween-80): 88 % of control | T/C (dose: 25.0 mg/kg/injection, schedule: Q01DX009 (ip), vehicle: distilled water + Tween-80): 104 % of control | T/C (dose: 50.0 mg/kg/injection, schedule: Q01DX009 (ip), vehicle: distilled water + Tween-80): 88 % of control | T/C (dose: 100.0 mg/kg/injection, schedule: Q01DX009 (ip), vehicle: distilled water + Tween-80): 98 % of control

CN1C(=O)CCS(=O)(=O)C1c1ccc(Cl)c(Cl)c1 (centres undefined)
T/C (dose: 0.39 mg/kg/injection, schedule: Q01DX009 (ip), vehicle: Klucel (hydroxypropylcellulose) (HPC)): 103 % of control | T/C (dose: 0.78 mg/kg/injection, schedule: Q01DX009 (ip), vehicle: Klucel (hydroxypropylcellulose) (HPC)): 87 % of control | T/C (dose: 1.56 mg/kg/injection, schedule: Q01DX009 (ip), vehicle: Klucel (hydroxypropylcellulose) (HPC)): 109 % of control and 116 % of control | T/C (dose: 3.12 mg/kg/injection, schedule: Q01DX009 (ip), vehicle: Klucel (hydroxypropylcellulose) (HPC)): 111 % of control and 118 % of control | T/C (dose: 6.25 mg/kg/injection, schedule: Q01DX009 (ip), vehicle: Klucel (hydroxypropylcellulose) (HPC)): 103 % of control and 111 % of control | T/C (dose: 12.5 mg/kg/injection, schedule: Q01DX009 (ip), vehicle: Klucel (hydroxypropylcellulose) (HPC)): 97 % of control | T/C [20]: 90 % of control

C[C@]12CC[C@H]3C(=CCc4cc(O)ccc43)[C@@H]1C/C(=N\O)C2=O
T/C [9]: 95 % of control | T/C [10]: 102 % of control | T/C [19]: 90 % of control

COc1ccc(/C=C\C(=O)/C=C/c2ccc(OC)cc2)cc1
T/C [1]: 97 % of control | T/C [2]: 97 % of control | T/C [3]: 97 % of control
